Measured values published in US8039670B2, “Analogs of alpha galactosyceramide and uses thereof” (Ludwig Institute for Cancer Research, priority 2005, dated 2011).

Columns and labels:
human DC = experiment: DC maturation in co-culture of human DC and iNKT cells (flow cytometry CD83, CD86, CD38); assay type: cell-based; details: for DC maturation (upregulation of CD83, CD86 and CD38): human DC with iNKT cell clone, 24 hours; for concentration inducing maximal DC maturation: titration on DC, 48 h
Protocol: Different analogs of α-GalCer as indicated or LPS were added to co-cultures of human DC and iNKT cells. (A) Maturation of the DC was assessed after 40 h, gating on CD11c positive cells. Histograms indicate the CD83 and CD86 profiles of DC from different treatments; the percentages indicate the percentage of CD83hi mature DC and the numbers in parenthesis, the mean fluorescence intensity of the population contained within the labeled gate. DC and iNKT cells were co-cultured in the presence of different analogs of α-GalCer for 24 hours. Supernatants were analyzed using ELISA for the presence of (B) IL-12p40 released by the DC and (C) IFN-γ from the iNKT cells. […] Cells were co-cultured in the presence of the indicated concentration of analog and the percentages of DC with increased CD83/CD80 are shown. […] Viability of α-GalCer or analog-pulsed DC was assessed after 40 h co-culture in the presence of iNKT cells by flow cytometry. Cells were stained with propidium iodide and the percentage of live CD11c gated cells remaining in the culture are shown.
Human monocyte-derived DC were pulsed with 150 ng of different inositol analogs and co-cultured with iNKT cells for 24 h. […] Numbers indicate the mean fluorescence intensity of the histogram gated on CD11c^+ cells.
Immature human DC were cultured in the presence of a human iNKT cell clone with or without analogs or vehicle at different concentrations.
(§1) To compare the functions of high affinity α-GalCer, intermediate affinity threitolceramide with the known, low affinity analog OCH, the three compounds were titrated onto DC and used to present to iNKT cells. Maturation of DC and DC viability were examined after 48 h.

IL-12 p70 protein = experiment: Example F: IL-12 p70 in tail blood six hours after injection (ELISA); assay type: in vivo; details: 1 μg or 10 μg
Protocol: These experiments were performed to determine the effect of selected compounds of the invention in stimulating the production of IL-12 production in subject animals. The animals received 1 μg or 10 μg of threitol, glycerol or Gal-Cer. One group of animals also received 50 μg of MPL. Six hours following injection, tail blood samples were collected and the IL-12 p70 protein was determined using an ELISA all in accordance with standard procedures.

DC = experiment: Viability of analog-pulsed DC co-cultured with iNKT cells (propidium iodide); assay type: cell-based, human; details: at concentration of maximal DC maturation
Protocol: (§2) Different analogs of α-GalCer as indicated or LPS were added to co-cultures of human DC and iNKT cells. (A) Maturation of the DC was assessed after 40 h, gating on CD11c positive cells. Histograms indicate the CD83 and CD86 profiles of DC from different treatments; the percentages indicate the percentage of CD83hi mature DC and the numbers in parenthesis, the mean fluorescence intensity of the population contained within the labeled gate. DC and iNKT cells were co-cultured in the presence of different analogs of α-GalCer for 24 hours. Supernatants were analyzed using ELISA for the presence of (B) IL-12p40 released by the DC and (C) IFN-γ from the iNKT cells. All the compounds tested induced weaker but significant cytokine production than α-GalCer, with the exception of arabinitolceramide. (D) Titration of α-GalCer, OCH or threitolceramide on DCs and co-culture with iNKT cells induces DC maturation in vitro. Cells were co-cultured in the presence of the indicated concentration of analog and the percentages of DC with increased CD83/CD80 are shown. […] Viability of α-GalCer or analog-pulsed DC was assessed after 40 h co-culture in the presence of iNKT cells by flow cytometry. Cells were stained with propidium iodide and the percentage of live CD11c gated cells remaining in the culture are shown.
as §1

iNKT cell clone = experiment: Cytokine release from iNKT cell clone stimulated with analog-pulsed C1R-human CD1d cells; assay type: cell-based
Protocol: FIG. 9 Inositol-based α-GalCer derivatives are functional in vitro. Human monocyte-derived DC were pulsed with 150 ng of different inositol analogs and co-cultured with iNKT cells for 24 h. […] Numbers indicate the mean fluorescence intensity of the histogram gated on CD11c^+ cells. 6-Deoxy and 6-Sulfono-myo-inositolceramide induce significant (B) IL-12p40 and (C) IFN-γ production by DC and iNKT cells respectively in the supernatants of co-cultured DC and iNKT cells. […] Release of (D) IFN-g and (E) IL-4 from iNKT cells after 24 h in culture with C1R-human CD1d cells pulsed with α-GalCer, 6-Deoxy- or 6-Sulfono-myo-inositolceramide.
The three inositol compounds were titrated on C1R cells expressing human CD1d and used to stimulate an iNKT cell clone.

[1] = Viability of analog-pulsed DC co-cultured with iNKT cells (propidium iodide); assay type: cell-based, human; details: human; at concentration of maximal DC maturation; read-out: DC still viable
Protocol: as §2, §1

OVA-specific IgGs = experiment: OVA-specific IgG in serum after co-administration with OVA (ELISA, FIG. 7B); assay type: in vivo, mice; details: 1 μg with 400 μg OVA, bled 11-14d
Protocol: (A) C57BL/6 or iNKT^−/− mice were injected i.v. with 1 μg of vehicle, α-GalCer, analog or 25 μg MPL. Twenty hours after injection splenocytes were stained with antibodies against B220 and CD86 and analyzed by flow cytometry. Maturation was assessed by the upregulation of CD86 at the cell surface, gating on B cells (B220^+). Mean fluorescence intensity for each histogram is indicated. […] Mice were bled 11-14d after administration and the serum tested by ELISA for antibodies. Briefly, ELISA plates were coated with 10 μg/ml OVA and then serial dilutions of sera added and incubated overnight at 4° C. before detecting with an HRP-conjugated sheep anti-mouse IgG.
Non-glycolipid analogs of α-GalCer stimulate B cell maturation in the presence of iNKT cells in vivo and subsequent antibody production. (A) C57BL/6 or iNKT^−/− mice were injected i.v. with 1 μg of vehicle, α-GalCer, analog or 25 μg MPL. Twenty hours after injection splenocytes were stained with antibodies against B220 and CD86 and analyzed by flow cytometry. Maturation was assessed by the upregulation of CD86 at the cell surface, gating on B cells (B220^+) (FIG. 7 A). Mean fluorescence intensity for each histogram is indicated. […] Mice were bled 11-14d after administration and the serum tested by ELISA for antibodies (FIG. 7 B).

human CD1d = human CD1d (Homo sapiens, UniProt P15813); details: acyl and sphingosine chains in A′ and C′ pockets; cited from earlier work
NKT cells = details: cancer patients, after treatment; cited from earlier work

Sequence of human CD1d (P15813 20-301 limits assumed): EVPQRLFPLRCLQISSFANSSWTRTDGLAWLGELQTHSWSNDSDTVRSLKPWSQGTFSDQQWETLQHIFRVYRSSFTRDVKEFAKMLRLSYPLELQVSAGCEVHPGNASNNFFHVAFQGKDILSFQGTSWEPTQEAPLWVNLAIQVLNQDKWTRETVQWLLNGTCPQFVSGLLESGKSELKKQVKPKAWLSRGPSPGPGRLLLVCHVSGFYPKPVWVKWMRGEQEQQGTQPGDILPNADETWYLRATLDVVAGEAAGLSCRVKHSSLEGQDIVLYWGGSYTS
Sequence of human CD1d (P61769 21-119 partner): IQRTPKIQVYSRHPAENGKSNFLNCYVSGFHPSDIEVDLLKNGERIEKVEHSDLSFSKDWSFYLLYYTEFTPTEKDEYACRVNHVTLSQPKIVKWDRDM

Compound	DC maturation (upregulation of CD83, CD86 and CD38) (human DC)	concentration inducing maximal DC maturation (human DC) [ng/mL]	IL-12/p70 secretion (IL-12 p70 protein)	DC viability (propidium iodide negative) compared with α-GalCer (DC)	concentration at which IFN-γ and IL-4 approach a plateau (iNKT cell clone) [ng/mL]	viability at 48 h, 0.8 ng/ml [1] [%]	OVA-specific IgGs (OVA-specific IgGs)	shape complementarity (Sc) (human CD1d)	time until NKT cells in peripheral blood fell to undetectable levels (NKT cells) [h]
CCCCCCCCCCCCCCCCCCCCCCCCCC(=O)N[C@@H](COC[C@H](O)[C@@H](O)CO)[C@H](O)[C@H](O)CCCCCCCCCCCCCC [Compound 3, Threitol Ceramide]	more potent than glycerolceramide and arabinitolceramide	67	Dose dependent increases in IL-12/p70 secretion	significantly greater proportion of DC were propidium iodide negative					
CCCCCCCCCCCCCCCCCCCCCCCCCC(=O)N[C@@H](CO[C@H]1OC(CO)[C@H](O)C(O)C1O)[C@H](O)[C@H](O)CCCCCCCCCCCCCC (stereo partly drawn) [α-GalCer, α galactosylceramide, reference compound]	significant upregulation of all the markers examined	0.8			200	10	induces significant OVA-specific IgGs	0.61	≤ 24
